Source: ChEMBL document CHEMBL1926660, “4-Aminoethylpiperazinyl aryl ketones with 5-HT₁A/5-HT₇ selectivity” (Bioorg Med Chem, 2012)

Legend:
[1] = target: T1, 5-hydroxytryptamine receptor 1A (Homo sapiens) (UniProt P08908); experiment: Displacement of [3H]LSD from human 5-HT1A receptor expressed in CHO-K1 cells at 10 uM; format: cell-based
T1 sequence (whole entry): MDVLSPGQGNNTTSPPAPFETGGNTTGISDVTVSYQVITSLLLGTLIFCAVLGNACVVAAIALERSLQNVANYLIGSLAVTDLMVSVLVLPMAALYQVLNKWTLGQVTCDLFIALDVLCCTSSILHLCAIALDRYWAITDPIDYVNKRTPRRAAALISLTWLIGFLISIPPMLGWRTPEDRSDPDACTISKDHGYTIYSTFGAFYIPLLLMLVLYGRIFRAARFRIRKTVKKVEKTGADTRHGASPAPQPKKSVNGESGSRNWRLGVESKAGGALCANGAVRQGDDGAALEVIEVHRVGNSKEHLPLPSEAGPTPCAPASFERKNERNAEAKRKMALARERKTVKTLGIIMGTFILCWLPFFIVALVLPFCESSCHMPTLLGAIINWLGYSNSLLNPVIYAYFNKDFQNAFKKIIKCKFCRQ

[2] = target: 5-hydroxytryptamine receptor 7 (Homo sapiens) (UniProt P34969); experiment: Displacement of […] from human 5-HT7 receptor expressed in HEK293 cells at 10 uM; format: cell-based
5-hydroxytryptamine receptor 7 (Homo sapiens), sequence (P34969 whole entry): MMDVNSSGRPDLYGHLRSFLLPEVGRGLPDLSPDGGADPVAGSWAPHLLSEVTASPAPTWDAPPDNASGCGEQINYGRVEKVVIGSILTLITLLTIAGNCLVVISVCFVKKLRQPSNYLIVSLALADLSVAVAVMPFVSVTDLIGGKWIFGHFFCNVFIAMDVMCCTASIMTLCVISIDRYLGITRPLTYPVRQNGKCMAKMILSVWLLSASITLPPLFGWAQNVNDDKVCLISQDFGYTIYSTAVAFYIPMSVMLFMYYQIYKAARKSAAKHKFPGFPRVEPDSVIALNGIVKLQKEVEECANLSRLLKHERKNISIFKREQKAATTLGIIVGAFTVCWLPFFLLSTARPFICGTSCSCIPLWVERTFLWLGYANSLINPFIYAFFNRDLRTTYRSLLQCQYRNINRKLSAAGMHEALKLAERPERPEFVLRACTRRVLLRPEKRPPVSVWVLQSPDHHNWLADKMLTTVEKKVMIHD

Structure (SMILES) | inhibition [1] | inhibition [2]
CC(C)(C)CCNCCN1CCN(C(=O)c2cc(Cl)cc(Cl)c2)CC1 | 33.7% | -0.6%
CC(C)(C)CCNCCN1CCN(C(=O)c2cc(C(F)(F)F)cc(C(F)(F)F)c2)CC1 | -4.4% | -0.3%
CC(C)c1cc(CNCCN2CCN(C(=O)c3cc(C(F)(F)F)cc(C(F)(F)F)c3)CC2)on1 | 13% | -0.3%
CC(C)(C)CCNCCN1CCN(C(=O)c2ccc(Cl)c(Cl)c2)CC1 | 65.2% | 2%
CC(C)c1cc(CNCCN2CCN(C(=O)c3ccc(Cl)c(Cl)c3)CC2)on1 | 76.4% | 16.1%
CC(C)c1cc(CNCCN2CCN(C(=O)c3cc(Cl)cc(Cl)c3)CC2)on1 | 43.2% | -0.2%

The next lines start with the values.

inhibition [1] | inhibition [2] | Structure (SMILES)
36.7% | -0.6% | CC(C)(C)CCNCCN1CCN(C(=O)c2ccc(Cl)cc2)CC1
90.1% | 62.7% | O=C(c1cc(Cl)cc(Cl)c1)N1CCN(CCNCCCc2nc3ccccc3[nH]2)CC1
47.5% | 36.8% | O=C(c1ccc(Cl)cc1)N1CCN(CCNCCCc2nc3ccccc3[nH]2)CC1
87.7% | 45.4% | O=C(c1cc(C(F)(F)F)cc(C(F)(F)F)c1)N1CCN(CCNCCCc2nc3ccccc3[nH]2)CC1
49.5% | 56.2% | O=C(c1ccc(Cl)c(Cl)c1)N1CCN(CCNCCCc2nc3ccccc3[nH]2)CC1
56.5% | 93.6% | CC(C)c1cc(CNCCN2CCN(C(=O)c3ccc(Cl)cc3)CC2)on1
